Assay results published in patent US20240279205A1, “NOVEL BENZIMIDAZOLE DERIVATIVE” (Carna Biosciences, Inc., priority 2020, published 2024).

Experiments:
human STING (hSTING) = target: T1, human STING (hSTING) (Homo sapiens, UniProt Q86WV6); experiment: Inhibition test of intracellular human STING (hSTING) pathway using SEAP reporter cells (HEK-Blue ISG), stimulation with Compound 3; assay type: cell-based; set-up: hSTING inhibitory activity: scale not given here; conditions: Compound 3 10 nM stimulation, 21 hours
T1 construct: host or cells: HEK-Blue ISG cells (HEK293-derived SEAP reporter line)
Method in brief: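 IC50 derived by regressing inhibition rate against log compound concentration (0.1 to 10 μM final, added 1 h before agonist), with 0% and 100% set by wells without and with 10 nM Compound 3. SEAP colour reaction read after 21 h stimulation of HEK-Blue ISG reporter cells.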

[1] = test system: STING activation (IFN-β production in THP-1 cells); experiment: Human IFN-β production inhibition test by cGAMP stimulation in THP-1 cells; assay type: cell-based; set-up: IFN-β bioinhibitory activity: scale not given here; conditions: 2'3'-cGAMP transfection, 18 hours, IFN-β ELISA; for IC50: Homo sapiens, read-out: IFN-β bioinhibitory activity
Method in brief: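 PMA-primed (100 nM, overnight) THP-1 cells pretreated 1 h with compound at 0.001 to 1 μM (0.1% DMSO), then transfected with 0.12 μg/well 2′3′-cGAMP and cultured 18 hours. Supernatant IFN-β measured by ELISA; IC50 by regression against log concentration, normalised to cGAMP-only (100%) and unstimulated (0%) controls.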

T1 sequence (Q86WV6 whole entry H232R): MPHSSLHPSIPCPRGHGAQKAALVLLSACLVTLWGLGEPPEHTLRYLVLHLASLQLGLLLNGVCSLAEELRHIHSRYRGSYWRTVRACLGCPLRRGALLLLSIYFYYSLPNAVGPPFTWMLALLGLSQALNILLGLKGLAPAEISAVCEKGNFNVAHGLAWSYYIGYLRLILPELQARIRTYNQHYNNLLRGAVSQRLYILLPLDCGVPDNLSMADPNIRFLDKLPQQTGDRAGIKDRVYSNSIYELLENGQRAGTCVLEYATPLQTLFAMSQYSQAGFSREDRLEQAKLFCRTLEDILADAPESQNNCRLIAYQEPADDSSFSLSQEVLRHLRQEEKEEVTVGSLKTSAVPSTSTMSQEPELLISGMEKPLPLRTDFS

Compound | hSTING inhibitory activity (human STING (hSTING)) | IFN-β bioinhibitory activity [1] | IC50 [1] [µM]
CN(C)n1c(Nc2c[nH]c3ccc(Cl)cc23)nc2cc(Cl)ccc21 [Embodiment 265, 5-Chloro-N2-(5-chloro-1H-indol-3-yl)-N1,N1-dimethyl-1H-benzo [d]imidazole-1,2-diamine] | * * * | * * | 
CN(C)n1c(Nc2c[nH]c3ccc(Cl)cc23)nc2ccc(C(F)(F)F)cc21 [Embodiment 266, N2-(5-Chloro-1H-indol-3-yl)-N1, N1-dimethyl-6-(trifluoromethyl)-1H-benzo[d]imidazole-1,2-diamine] | * * |  | 0.1 to 1
Fc1cc(C(F)(F)F)cc2nc(Nc3c[nH]c4ccc(Cl)cc34)[nH]c12 [Embodiment 267, N-(5-Chloro-1H-indol-3-yl)-7-fluoro-5-(trifluoromethyl)-1H-benzo [d]imidazol-2-amine] | * * |  | 0.1 to 1
FC(F)(F)c1ccc2[nH]c(Nc3c[nH]c4ccc(Cl)cc34)nc2c1 [Embodiment 268, N-(5-Chloro-1H-indol-3-yl)-5-(trifluoromethyl)-1H-benzo[d]imidazol-2-amine] | * * | * * | 
Nn1c(Nc2c[nH]c3ccc(Cl)cc23)nc2cc(C(F)(F)F)cc(F)c21 [Embodiment 269, N2-(5-Chloro-1H-indol-3-yl)-7-fluoro-5-(trifluoromethyl)-1H-benzo[d]imidazole-1,2-diamine] | * * * | * * | 
Brc1ccc2[nH]cc(Nc3nc4cc(Oc5ccccc5)ccc4[nH]3)c2c1 [Example 3, N-(5-bromo-1H-indol-3-yl)-5-phenoxy-1H-benzo[d]imidazol-2-amine] | * * | * * | 
Clc1ccc2[nH]c(Nc3c[nH]c4ccc(Br)cc34)nc2c1 [Example 4, N-(5-bromo-1H-indol-3-yl)-5-chloro-1H-benzo[d]imidazol-2-amine] | * * * | * * | 
COc1ccc2[nH]c(Nc3c[nH]c4ccc(Br)cc34)nc2c1 [Example 6, N-(5-bromo-1H-indol-3-yl)-5-methoxy-1H-benzo[d]imidazol-2-amine] | * * |  | 0.1 to 1
Brc1ccc2[nH]c(Nc3c[nH]c4ccc(Br)cc34)nc2c1 [Example 7, 5-bromo-N-(5-bromo-1H-indol-3-yl)-1H-benzo[d]imidazol-2-amine] | * * * | * * | 
FC(F)(F)c1ccc2[nH]c(Nc3c[nH]c4ccc(Br)cc34)nc2c1 [Example 8, N-(5-bromo-1H-indol-3-yl)-5-(trifluoromethyl)-1H-benzo[d]imidazol-2-amine] | * * | * * | 
Brc1ccc2[nH]cc(Nc3nc4cc(Oc5ccccc5)ccc4[nH]3)c2n1 [Example 12, N-(5-bromo-1H-pyrrolo[3,2-b]pyridin-3-yl)-5-phenoxy-1H-benzo[d]imidazol-2-amine] | * * |  | 0.1 to 1
Cn1c(Nc2c[nH]c3ccc(Br)cc23)nc2ccccc21 [Example 18, N-(5-bromo-1H-indol-3-yl)-1-methyl-1H-benzo[d]imidazol-2-amine] | * * |  | ≥ 1
N#Cc1ccc2[nH]c(Nc3c[nH]c4ccc(Br)cc34)nc2c1 [Example 19, 2-[(5-bromo-1H-indol-3-yl)amino]-1H-benzo[d]imidazole-5-carbonitrile] | * * |  | 0.1 to 1
Brc1ccc2[nH]cc(Nc3nc4c(Br)cccc4[nH]3)c2c1 [Example 24, 4-bromo-N-(5-bromo-1H-indol-3-yl)-1H-benzo[d]imidazol-2-amine] | * * | * * | 
Fc1cccc2[nH]c(Nc3c[nH]c4ccc(Br)cc34)nc12 [Example 25, N-(5-bromo-1H-indol-3-yl)-4-fluoro-1H-benzo[d]imidazol-2-amine] | * * | * * | 
CN(C)c1cccc(Oc2ccc3[nH]c(Nc4c[nH]c5ccc(Br)cc45)nc3c2)c1 [Example 26, N-(5-bromo-1H-indol-3-yl)-5-[3-(dimethylamino)phenoxy]-1H-benzo[d]imidazol-2-amine] | * * | * * | 
FC(F)(F)c1ccc2[nH]c(Nc3c[nH]c4ccc(Br)nc34)nc2c1 [Example 31, N-(5-bromo-1H-pyrrolo[3,2-b]pyridin-3-yl)-5-(trifluoromethyl)-1H-benzo[d]imidazol-2-amine] | * * | * * * | 
